Results: ChEMBL document CHEMBL4334438, “Discovery of novel glycogen synthase kinase-3α inhibitors: Structure-based virtual screening, preliminary SAR and biological evaluation for treatment of acute myeloid leukemia” (Eur J Med Chem, 2019)

Legend:
[1] = biological target: NUAK family SNF1-like kinase 1 (Homo sapiens) (UniProt O60285); assay: Inhibition of recombinant human ARK5 (2 to end residues) assessed as residual activity at 1 uM using KKKVSRSGLYRSPSMPENLNRPR as substrate incubated for 40 mins in presence of [gamma-33ATP] by scintillation counting based radiometry assay relative to control
[2] = biological target: Casein kinase II subunit alpha (Homo sapiens) (UniProt P68400); assay: Inhibition of recombinant full length human CK2alpha1 assessed as residual activity at 1 uM using RRRDDDSDDD as substrate incubated 40 mins in presence of [gamma-33ATP] by scintillation counting based radiometry assay relative to control
Chain of Casein kinase II subunit alpha (Homo sapiens) (P68400 whole entry, looked up): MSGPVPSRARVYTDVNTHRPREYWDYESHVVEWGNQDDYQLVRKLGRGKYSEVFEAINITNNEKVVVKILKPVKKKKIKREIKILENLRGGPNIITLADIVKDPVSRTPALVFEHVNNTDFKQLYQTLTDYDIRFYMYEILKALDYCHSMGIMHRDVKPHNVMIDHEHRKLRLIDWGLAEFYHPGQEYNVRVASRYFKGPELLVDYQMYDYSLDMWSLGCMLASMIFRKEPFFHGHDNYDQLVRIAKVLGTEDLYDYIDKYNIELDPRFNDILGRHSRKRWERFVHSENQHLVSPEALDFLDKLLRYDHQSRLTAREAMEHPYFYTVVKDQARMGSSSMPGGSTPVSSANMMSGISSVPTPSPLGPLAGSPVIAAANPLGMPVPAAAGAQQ

[3] = system: Mast/stem cell growth factor receptor Kit (Homo sapiens), P10721 [D816H]; assay: Inhibition of recombinant human C-Kit D816H mutant (544 to end residues) assessed as residual activity at 1 uM poly(Glu, Tyr) 4:1 as substrate incubated 40 mins in presence of [gamma-33ATP] by scintillation counting based radiometry assay relative to control
Chain of Mast/stem cell growth factor receptor Kit (Homo sapiens), P10721 [D816H] (P10721 whole entry D816H): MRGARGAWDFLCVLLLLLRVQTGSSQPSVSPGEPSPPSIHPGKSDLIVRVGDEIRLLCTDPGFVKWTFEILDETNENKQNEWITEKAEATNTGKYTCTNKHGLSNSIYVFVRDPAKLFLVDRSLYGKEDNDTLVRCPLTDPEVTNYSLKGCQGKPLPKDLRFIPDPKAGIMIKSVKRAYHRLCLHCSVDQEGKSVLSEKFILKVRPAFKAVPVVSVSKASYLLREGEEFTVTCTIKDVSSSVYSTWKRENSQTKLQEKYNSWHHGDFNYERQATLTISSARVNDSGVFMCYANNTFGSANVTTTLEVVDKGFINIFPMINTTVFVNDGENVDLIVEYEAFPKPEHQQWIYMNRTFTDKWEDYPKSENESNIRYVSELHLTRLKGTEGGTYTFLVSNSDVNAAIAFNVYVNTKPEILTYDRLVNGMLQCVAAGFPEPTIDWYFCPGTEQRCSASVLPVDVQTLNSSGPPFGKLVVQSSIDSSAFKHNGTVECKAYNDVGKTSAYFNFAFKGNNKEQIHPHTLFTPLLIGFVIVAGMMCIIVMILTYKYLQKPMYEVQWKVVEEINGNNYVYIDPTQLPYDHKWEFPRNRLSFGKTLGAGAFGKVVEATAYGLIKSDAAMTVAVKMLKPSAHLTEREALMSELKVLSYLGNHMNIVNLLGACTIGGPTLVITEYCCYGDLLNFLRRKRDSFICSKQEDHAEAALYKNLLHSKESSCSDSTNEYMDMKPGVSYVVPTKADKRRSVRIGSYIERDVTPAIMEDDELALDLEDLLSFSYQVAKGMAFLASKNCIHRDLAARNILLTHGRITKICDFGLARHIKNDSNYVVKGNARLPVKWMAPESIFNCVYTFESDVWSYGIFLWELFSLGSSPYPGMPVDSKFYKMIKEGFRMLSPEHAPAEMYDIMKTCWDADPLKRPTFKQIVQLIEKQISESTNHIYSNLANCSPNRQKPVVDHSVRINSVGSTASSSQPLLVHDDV

[4] = biological target: Proto-oncogene tyrosine-protein kinase Src (Homo sapiens) (UniProt P12931); assay: Inhibition of recombinant human C-Src assessed as residual activity at 1 uM KVEKIGEGTYGVV as substrate incubated 40 mins in presence of [gamma-33ATP] by scintillation counting based radiometry assay relative to control
[5] = biological target: Death-associated protein kinase 2 (Homo sapiens) (UniProt Q9UIK4); assay: Inhibition of recombinant full length human DAPK2 assessed as residual activity at 1 uM Calmodulin as substrate incubated 40 mins in presence of [gamma-33ATP] by scintillation counting based radiometry assay relative to control
[6] = biological target: Ephrin type-B receptor 4 (Homo sapiens) (UniProt P54760); assay: Inhibition of recombinant human EphB4 (561 to end residues) assessed as residual activity at 1 uM using poly(Glu, Tyr) 4:1 as substrate at 40 mins in presence of [gamma-33ATP] by scintillation counting based radiometry assay relative to control
[7] = biological target: Tyrosine-protein kinase Fes/Fps (Homo sapiens) (UniProt P07332); assay: Inhibition of recombinant human FES (2 to end residues) assessed as residual activity at 1 uM using poly(Glu, Tyr) 4:1 as substrate at 40 mins in presence of [gamma-33ATP] by scintillation counting based radiometry assay relative to control
[8] = biological target: Receptor-type tyrosine-protein kinase FLT3 (Homo sapiens) (UniProt P36888); assay: Inhibition of recombinant human FLT3 (564 to end residues) assessed as residual activity at 1 uM using EAIYAAPFAKKK as substrate at 40 mins in presence of [gamma-33ATP] by scintillation counting based radiometry assay relative to control
[9] = biological target: Tyrosine-protein kinase HCK (Homo sapiens) (UniProt P08631); assay: Inhibition of human HCK activated (230 to 497 residues) assessed as residual activity at 1 uM using GGMEDIYFEFMGGKKK as substrate after 40 mins by [gamma-33ATP] radiometric assay relative to control
[10] = biological target: Insulin receptor (Homo sapiens) (UniProt P06213); assay: Inhibition of human activated IR (1005 to 1310 residues) assessed as residual activity at 1 uM using KKKSPGEYVNIEFG as substrate after 40 mins by [gamma-33ATP] radiometric assay relative to control
[11] = biological target: Leucine-rich repeat serine/threonine-protein kinase 2 (Homo sapiens) (UniProt Q5S007); assay: Inhibition of recombinant human LRRK2 (970 to end residues) assessed as residual activity at 1 uM using RLGRDKYKTLRQIRQ as substrate after 40 mins in presence of [gamma-33ATP] by scintillation counting based radiometry assay relative to control
[12] = biological target: Mitogen-activated protein kinase kinase kinase kinase 5 (Homo sapiens) (UniProt Q9Y4K4); assay: Inhibition of recombinant human MAP4K5 assessed as residual activity at 1 uM using myelin basic protein as substrate incubated for 40 mins in presence of [gamma-33ATP by scintillation counting based radiometry assay relative to control
[13] = biological target: MAP kinase-interacting serine/threonine-protein kinase 2 (Homo sapiens) (UniProt Q9HBH9); assay: Inhibition of recombinant full-length human Mnk2 assessed as residual activity at 1 uM using myelin basic protein as substrate measured after 40 mins in presence of [gamma33P]ATP by scintillation counting method
[14] = biological target: Serine/threonine-protein kinase pim-1 (Homo sapiens) (UniProt P11309); assay: Inhibition of recombinant full length human Pim1 assessed as residual activity at 1 uM using KKRNRTLTV as substrate measured after 40 mins in presence of [gamma33P]ATP by scintillation counting method relative to control
[15] = biological target: Protein kinase C beta type (Homo sapiens) (UniProt P05771); assay: Inhibition of recombinant human PKCbeta1 (2 to end residues) assessed as residual activity at 1 uM using histone H1 as substrate measured after 40 mins in presence of [gamma33P]ATP by scintillation counting method relative to control
[16] = biological target: Tyrosine-protein kinase Srms (Homo sapiens) (UniProt Q9H3Y6); assay: Inhibition of human SRMS assessed as residual activity at 1 uM by radiometric method relative to control
Chain of Tyrosine-protein kinase Srms (Homo sapiens) (Q9H3Y6 whole entry): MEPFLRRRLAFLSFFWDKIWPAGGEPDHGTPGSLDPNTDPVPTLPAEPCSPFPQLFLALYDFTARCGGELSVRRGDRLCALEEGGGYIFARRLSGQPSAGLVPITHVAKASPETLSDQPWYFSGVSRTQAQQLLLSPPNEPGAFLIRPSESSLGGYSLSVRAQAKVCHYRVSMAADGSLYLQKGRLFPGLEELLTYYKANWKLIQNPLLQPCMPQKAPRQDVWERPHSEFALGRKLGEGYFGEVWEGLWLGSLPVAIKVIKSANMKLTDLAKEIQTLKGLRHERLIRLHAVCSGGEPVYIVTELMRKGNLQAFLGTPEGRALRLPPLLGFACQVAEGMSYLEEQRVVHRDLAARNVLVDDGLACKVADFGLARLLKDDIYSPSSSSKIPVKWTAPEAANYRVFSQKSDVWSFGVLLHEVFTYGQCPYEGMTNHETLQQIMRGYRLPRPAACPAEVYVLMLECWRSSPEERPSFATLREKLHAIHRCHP

[17] = biological target: Serine/threonine-protein kinase 32A (Homo sapiens) (UniProt Q8WU08); assay: Inhibition of recombinant full-length human STK32A at 1 uM assessed as residual activity at 1 uM using casein as substrate measured after 120 mins in presence of [gamma33P]ATP by scintillation counting method relative to control
Chain of Serine/threonine-protein kinase 32A (Homo sapiens) (Q8WU08 whole entry): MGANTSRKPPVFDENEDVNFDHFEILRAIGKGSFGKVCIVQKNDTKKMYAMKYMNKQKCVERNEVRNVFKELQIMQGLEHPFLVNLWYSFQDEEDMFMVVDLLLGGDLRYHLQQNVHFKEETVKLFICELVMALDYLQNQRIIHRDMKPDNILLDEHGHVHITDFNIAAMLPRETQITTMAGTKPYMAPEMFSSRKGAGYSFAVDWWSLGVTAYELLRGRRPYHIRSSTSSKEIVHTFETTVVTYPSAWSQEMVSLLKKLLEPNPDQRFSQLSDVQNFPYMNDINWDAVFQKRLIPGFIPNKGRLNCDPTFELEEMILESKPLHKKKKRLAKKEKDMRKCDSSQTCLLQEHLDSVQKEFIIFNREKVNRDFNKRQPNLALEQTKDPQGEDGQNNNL

[18] = biological target: Serine/threonine-protein kinase 32C (Homo sapiens) (UniProt Q86UX6); assay: Inhibition of recombinant full-length human STK32C at 1 uM assessed as residual activity at 1 uM using casein as substrate measured after 120 mins in presence of [gamma33P]ATP by scintillation counting method relative to control
Chain of Serine/threonine-protein kinase 32C (Homo sapiens) (Q86UX6 whole entry): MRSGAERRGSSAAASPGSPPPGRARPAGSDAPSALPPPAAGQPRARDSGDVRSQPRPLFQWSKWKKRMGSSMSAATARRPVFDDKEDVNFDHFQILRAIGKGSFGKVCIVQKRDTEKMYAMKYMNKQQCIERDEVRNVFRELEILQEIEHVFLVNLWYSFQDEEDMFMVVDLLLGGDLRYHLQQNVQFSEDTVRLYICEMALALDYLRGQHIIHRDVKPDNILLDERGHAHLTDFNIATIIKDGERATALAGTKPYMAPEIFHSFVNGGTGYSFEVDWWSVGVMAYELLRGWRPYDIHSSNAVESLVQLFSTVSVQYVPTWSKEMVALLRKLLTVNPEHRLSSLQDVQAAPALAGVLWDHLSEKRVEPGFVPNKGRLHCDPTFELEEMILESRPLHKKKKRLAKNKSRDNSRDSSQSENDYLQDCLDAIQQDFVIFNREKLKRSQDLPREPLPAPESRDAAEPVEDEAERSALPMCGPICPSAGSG

[19] = biological target: Tribbles homolog 2 (Homo sapiens) (UniProt Q92519); assay: Inhibition of recombinant full-length human TRB2 at 1 uM assessed as residual activity at 1 uM using RRRFRPASPLRGPPK as substrate measured after 120 mins in presence of [gamma33P]ATP by scintillation counting method relative to control
[20] = biological target: Tau-tubulin kinase 2 (Homo sapiens) (UniProt Q6IQ55); assay: Inhibition of human TTBK2 (1 to 331 residues) assessed as residual activity at 1 uM using Casein as substrate measured after 40 mins in presence of [gamma33P]ATP by scintillation counting method relative to control
Chain of Tau-tubulin kinase 2 (Homo sapiens) (Q6IQ55 whole entry, the tested form may be a part): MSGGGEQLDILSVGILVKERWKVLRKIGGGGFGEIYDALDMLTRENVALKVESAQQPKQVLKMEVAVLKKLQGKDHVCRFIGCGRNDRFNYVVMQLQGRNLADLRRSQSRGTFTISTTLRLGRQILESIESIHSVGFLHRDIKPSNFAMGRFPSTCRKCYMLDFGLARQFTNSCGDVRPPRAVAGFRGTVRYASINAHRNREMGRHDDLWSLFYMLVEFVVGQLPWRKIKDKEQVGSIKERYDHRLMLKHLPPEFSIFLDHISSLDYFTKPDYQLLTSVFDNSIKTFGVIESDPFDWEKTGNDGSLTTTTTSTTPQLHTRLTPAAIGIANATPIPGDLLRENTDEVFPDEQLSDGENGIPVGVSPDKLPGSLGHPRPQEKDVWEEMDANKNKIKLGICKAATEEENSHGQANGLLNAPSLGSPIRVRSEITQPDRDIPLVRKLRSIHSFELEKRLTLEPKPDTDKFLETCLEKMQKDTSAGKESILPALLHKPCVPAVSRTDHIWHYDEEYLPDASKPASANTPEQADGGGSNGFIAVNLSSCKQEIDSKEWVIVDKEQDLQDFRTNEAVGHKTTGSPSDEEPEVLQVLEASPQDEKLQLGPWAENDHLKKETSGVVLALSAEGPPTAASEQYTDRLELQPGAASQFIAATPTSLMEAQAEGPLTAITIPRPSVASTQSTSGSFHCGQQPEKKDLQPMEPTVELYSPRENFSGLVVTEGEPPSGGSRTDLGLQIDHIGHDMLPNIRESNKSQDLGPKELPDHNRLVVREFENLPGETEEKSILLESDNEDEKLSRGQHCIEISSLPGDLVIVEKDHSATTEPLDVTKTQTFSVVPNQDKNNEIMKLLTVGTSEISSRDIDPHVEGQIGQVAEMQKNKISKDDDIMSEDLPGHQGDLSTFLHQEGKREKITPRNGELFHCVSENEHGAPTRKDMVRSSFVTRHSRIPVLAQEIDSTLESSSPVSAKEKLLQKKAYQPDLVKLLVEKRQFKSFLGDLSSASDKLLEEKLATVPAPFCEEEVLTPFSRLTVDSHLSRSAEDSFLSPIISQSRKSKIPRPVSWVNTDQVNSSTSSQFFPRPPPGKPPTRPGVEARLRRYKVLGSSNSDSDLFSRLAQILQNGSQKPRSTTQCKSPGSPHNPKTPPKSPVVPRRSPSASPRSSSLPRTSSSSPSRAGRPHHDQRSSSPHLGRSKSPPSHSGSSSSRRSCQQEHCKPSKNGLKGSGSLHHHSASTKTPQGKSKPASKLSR

[21] = biological target: Serine/threonine-protein kinase VRK2 (Homo sapiens) (UniProt Q86Y07); assay: Inhibition of human VRK2 (1 to 336 residues) assessed as residual activity at 1 uM using casein as substrate measured after 40 mins in presence of [gamma33P]ATP by scintillation counting method relative to control
Chain of Serine/threonine-protein kinase VRK2 (Homo sapiens) (Q86Y07 whole entry, the tested form may be a part): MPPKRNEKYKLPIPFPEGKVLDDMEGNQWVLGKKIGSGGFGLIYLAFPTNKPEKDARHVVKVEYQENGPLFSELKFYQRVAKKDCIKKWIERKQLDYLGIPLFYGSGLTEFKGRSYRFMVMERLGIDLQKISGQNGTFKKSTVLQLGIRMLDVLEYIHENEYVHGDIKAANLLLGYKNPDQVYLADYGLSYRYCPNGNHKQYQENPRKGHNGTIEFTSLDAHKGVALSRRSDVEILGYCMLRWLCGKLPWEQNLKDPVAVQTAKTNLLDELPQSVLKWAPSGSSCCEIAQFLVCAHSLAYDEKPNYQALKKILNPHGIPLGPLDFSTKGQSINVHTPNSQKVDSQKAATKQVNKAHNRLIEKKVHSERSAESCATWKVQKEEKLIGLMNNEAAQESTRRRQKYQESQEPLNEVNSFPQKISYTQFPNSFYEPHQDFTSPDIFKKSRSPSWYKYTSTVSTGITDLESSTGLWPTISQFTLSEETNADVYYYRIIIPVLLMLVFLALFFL

[22] = biological target: Death-associated protein kinase 3 (Homo sapiens) (UniProt O43293); assay: Inhibition of human ZIPK (1 to 290 residues) assessed as residual activity at 1 uM using KKLNRTLSFAEPG as substrate measured after 40 mins in presence of [gamma33P]ATP by scintillation counting method relative to control
Chain of Death-associated protein kinase 3 (Homo sapiens) (O43293 whole entry, looked up, the tested form may be a part): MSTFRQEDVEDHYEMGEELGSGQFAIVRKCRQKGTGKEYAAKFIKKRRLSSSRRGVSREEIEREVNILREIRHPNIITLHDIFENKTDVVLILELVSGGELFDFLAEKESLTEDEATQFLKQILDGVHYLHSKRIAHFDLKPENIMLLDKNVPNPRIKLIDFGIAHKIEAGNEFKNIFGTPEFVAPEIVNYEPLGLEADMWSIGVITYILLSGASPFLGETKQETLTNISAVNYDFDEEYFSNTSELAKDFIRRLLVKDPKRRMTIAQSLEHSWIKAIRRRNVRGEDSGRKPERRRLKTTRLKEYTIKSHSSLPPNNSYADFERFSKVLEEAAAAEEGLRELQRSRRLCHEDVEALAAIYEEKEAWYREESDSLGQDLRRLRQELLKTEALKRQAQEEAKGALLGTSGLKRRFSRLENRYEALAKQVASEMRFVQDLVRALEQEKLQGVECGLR

Row | Compound | Activity [1] [%] | Activity [2] [%] | Activity [3] [%] | Activity [4] [%] | Activity [5] [%] | Activity [6] [%] | Activity [7] [%] | Activity [8] [%] | Activity [9] [%] | Activity [10] [%] | Activity [11] [%] | Activity [12] [%] | Activity [13] [%] | Activity [14] [%] | Activity [15] [%] | Activity [16] [%] | Activity [17] [%] | Activity [18] [%] | Activity [19] [%] | Activity [20] [%] | also measured
1 | N=C1NC(=O)/C(=C\c2ccc(-c3cccc([N+](=O)[O-])c3)o2)S1 | 99 | 57 | 89 | 82 | 83 | 93 | 103 | 90 | 80 | 103 | 99 | 95 | 77 | 9 | 100 | 95 | 100 | 101 | 40 | 107 | Activity [21]: 101%; Activity [22]: 93%
2 | C=CCOC(=O)c1cc(-c2ccc(/C=C3/NC(=S)NC3=O)o2)ccc1Cl | 79 | 59 | 97 | 79 | 86 | 94 | 91 | 108 | 103 | 106 | 100 | 94 | 84 | 21 | 113 | 114 | 101 | 94 | 49 | 111 | Activity [21]: 100%; Activity [22]: 96%
